# Measurements: patent US20250144067A1, “PERSONALIZED STARVATION THERAPY FOR CANCER” (Faeth Therapeutics, Inc., priority 2021, published 2025)
# Where a name gives a salt, the structure may show the parent alone. Read-outs that look alike come from different tables or passages of the source.
# Legend:
# [1] = test system: NCI-H292 lung cancer cells; assay: FDA drug screening, complete media vs cholesterol-free media with simvastatin (TABLE 2); assay type: cell-based, human
# [2] = test system: NCI-H292 lung cancer cells; assay: FDA drug screening, complete media vs cholesterol-free media without statin (TABLE 1); assay type: cell-based, human
# [3] = NCI-H292 cells, cholesterol-free media with simvastatin 0.04 μM, cell growth value in FDA drug screen
# [4] = NCI-H292 cells, complete media, cell growth value in FDA drug screen
# [5] = complete media minus cholesterol-free media + simvastatin, >0 enhanced anti-cancer activity, about 0 neutral, <0 antagonist
# [6] = Complete minus Cholesterol-free, greater than 0 enhanced anti-cancer activity, about 0 neutral, below 0 antagonists
# [7] = NCI-H292 cells in cholesterol-free media without statin
# [8] = NCI-H292 cells in complete media
# [9] = NCI-H292 cells, cholesterol-free media with simvastatin 0.04 μM, FDA drug library screen (TABLE 2)
# [10] = NCI-H292 cells, complete media, FDA drug library screen (TABLE 2)
# [11] = complete media minus cholesterol-free media + simvastatin (0.04 μM), >0 enhanced anti-cancer activity, about 0 neutral, <0 antagonist
# [12] = Complete minus Cholesterol-free, greater than 0 enhanced anti-cancer activity, about 0 neutral, below 0 antagonist
# [13] = NCI-H292 cells, FDA drug library screen, cholesterol-free media without statin
# [14] = NCI-H292 cells, FDA drug library screen, complete media
# [15] = NCI-H292 cells, FDA drug library screen, cholesterol-free media with simvastatin 0.04 μM
# [16] = Complete minus Cholesterol-free, […]
# [17] = NCI-H292 cells, cholesterol-free media without statin, FDA drug library screen
# [18] = NCI-H292 cells, complete media, FDA drug library screen
# [19] = NCI-H292 cells, FDA library drug in cholesterol-free media with simvastatin 0.04 μM
# [20] = NCI-H292 cells, FDA library drug in complete media
# [21] = complete media vs cholesterol-free media + simvastatin (0.04 μM), >0 enhanced anti-cancer activity, about 0 neutral, <0 antagonist
# [22] = complete vs cholesterol-free media, >0 enhanced anti-cancer activity, about 0 neutral, <0 antagonist
# [23] = Complete minus Cholesterol-free, >0 enhanced anti-cancer activity, about 0 neutral, <0 antagonist
# [24] = NCI-H292 cells, cholesterol-free media without statin
# [25] = complete vs cholesterol-free media, greater than 0 enhanced anti-cancer activity, about 0 neutral, below 0 antagonists
# [26] = NCI-H292 cells, drug in complete media
molecule,measurement,setting,value
Solifenacin (Succinate),Cholesterol-free media + simvastatin (0.04 μM),[1],0.8847
same,Complete Media,[1],0.7655
same,Difference,[1],−0.12
same,Cholesterol-free,[2],1.612
same,Complete,[2],1.244
same,Difference,[2],−0.37
O=C(O)CCNC(=O)c1ccccc1 [Betamipron],Cholesterol-free media + simvastatin (0.04 μM),[1]; [3],0.7936
same,Complete Media,[1]; [4],0.9075
same,Difference,[1]; [5],0.11
same,Difference,[2]; [6],−1.00
same,Cholesterol-free,[2]; [7],1.952
same,Complete,[2]; [8],0.9561
O=c1[nH]c(=O)n([C@H]2C[C@H](O)[C@@H](CO)O2)cc1C(F)(F)F [Trifluridine],Cholesterol-free media + simvastatin (0.04 μM),[1]; [9],0.1119
same,Complete Media,[1]; [10],0.1066
same,Difference,[1]; [11],−0.01
same,Difference,[2]; [12],−0.14
same,Cholesterol-free,[2]; [13],0.2875
same,Complete,[2]; [14],0.145
C[C@]12CC[C@@H]3c4ccc(O)cc4CC[C@H]3[C@@H]1CC[C@H]2O [Alpha-Estradiol],Cholesterol-free media + simvastatin (0.04 μM),[1]; [15],1.11
same,Complete Media,[1]; [14],1.408
same,Difference,[1]; [5],0.30
same,Difference,[2]; [12],−0.14
same,Cholesterol-free,[2]; [13],0.998
same,Complete,[2]; [14],0.8561
CN(C)CCc1c[nH]c2ccc(Cn3cncn3)cc12.O=C(O)c1ccccc1 [Rizatriptan (benzoate)],Cholesterol-free media + simvastatin (0.04 μM),[1]; [15],1.054
same,Complete Media,[1]; [14],0.9799
same,Difference,"[1]; complete media vs cholesterol-free media + simvastatin (0.04 μM), […]",−0.07
same,Difference,[2]; [16],0.02
same,Cholesterol-free,[2]; [17],0.4266
same,Complete,[2]; [18],0.447
Cc1ccc(C(=O)Nc2ccc(S(=O)(=O)O)c3cc(S(=O)(=O)O)cc(S(=O)(=O)O)c23)cc1NC(=O)c1cccc(NC(=O)Nc2cccc(C(=O)Nc3cc(C(=O)Nc4ccc(S(=O)(=O)O)c5cc(S(=O)(=O)O)cc(S(=O)(=O)O)c45)ccc3C)c2)c1 [Suramin (sodium salt)],Cholesterol-free media + simvastatin (0.04 μM),[1]; [19],1.303
same,Complete Media,[1]; [20],0.9716
same,Difference,[1]; [21],−0.33
same,Difference,[2]; [6],−0.70
same,Cholesterol-free,[2]; [7],1.64
same,Complete,[2]; [8],0.9404
Bretylium (tosylate),Complete Media,[1]; [20],0.8163
same,Difference,[1]; [21],−0.40
same,Cholesterol-free,[2]; [17],0.5154
same,Complete,[2]; [18],0.751
same,Difference,[2]; [22],0.24
Cc1nc(-c2ccc(OCC(C)C)c(C#N)c2)sc1C(=O)O [Febuxostat],Cholesterol-free media + simvastatin (0.04 μM),[1]; [15],1.155
same,Complete Media,[1]; [14],1.036
same,Difference,[1]; [21],−0.12
same,Cholesterol-free,[2]; [17],0.955
same,Complete,[2]; [18],1.415
same,Difference,[2]; [22],0.46
COc1ccc(C(C)=O)c(O)c1 [Paeonol],Cholesterol-free media + simvastatin (0.04 μM),[1]; [3],1.081
same,Complete Media,[1]; [4],1.107
same,Difference,[1]; [5],0.03
same,Difference,[2]; [23],−0.29
same,Cholesterol-free,[2]; [24],1.074
same,Complete,"[2]; NCI-H292 cells, complete media",0.7804
Cc1c(OCC(F)(F)F)ccnc1C[S@@+]([O-])c1nc2ccccc2[nH]1 [(R)-Lansoprazole],Cholesterol-free media + simvastatin (0.04 μM),[1]; [9],1.431
same,Complete Media,[1]; [10],1.389
same,Difference,[1]; [11],−0.04
same,Difference,[2]; [12],−0.18
same,Cholesterol-free,[2]; [13],0.9835
same,Complete,[2]; [14],0.8054
NC(=O)c1cnc2[nH]ccc2c1N[C@@H]1[C@@H]2CC3C[C@H]1C[C@@](O)(C3)C2 [Peficitinib],Cholesterol-free media + simvastatin (0.04 μM),[1]; [3],0.6674
same,Complete Media,[1]; [4],0.776
same,Difference,[1]; [5],0.11
same,Difference,[2]; [23],−0.03
same,Cholesterol-free,[2]; [17],1.336
same,Complete,[2]; [18],1.303
CC1(C)O[C@@H]2C[C@H]3[C@@H]4CCC5=CC(=O)CC[C@]5(C)[C@@]4(F)[C@@H](O)C[C@]3(C)[C@]2(C(=O)CCl)O1 [Halcinonide],Cholesterol-free media + simvastatin (0.04 μM),[1]; [3],0.5751
same,Complete Media,[1]; [4],0.6822
same,Difference,[1]; [5],0.11
same,Difference,[2]; [12],−0.18
same,Cholesterol-free,[2]; [13],0.895
same,Complete,[2]; [14],0.7117
OCCOCCN1CCN(C(c2ccccc2)c2ccc(Cl)cc2)CC1 (stereo not drawn) [Hydroxyzine (dihydrochloride)],Cholesterol-free media + simvastatin (0.04 μM),[1]; [15],0.6407
same,Difference,[1]; [5],0.53
same,Cholesterol-free,[2]; [24],1.474
same,Complete,"[2]; NCI-H292 cells, complete media",1.128
same,Difference,[2]; [25],−0.35
CC[N+](C)(C)c1cccc(O)c1.[Cl-] [Edrophonium (chloride)],Cholesterol-free media + simvastatin (0.04 μM),"[1]; NCI-H292 cells, cholesterol-free media with simvastatin 0.04 μM, […]",1.155
same,Complete Media,"[1]; NCI-H292 cells, complete media, […]",1.199
same,Difference,"[1]; complete media minus cholesterol-free media + simvastatin, […]",0.04
same,Difference,[2]; [16],−0.15
same,Cholesterol-free,[2]; [13],1.134
same,Complete,[2]; [14],0.9821
CC1=C(C/C=C(\C)CCC[C@H](C)CCC[C@H](C)CCCC(C)C)C(=O)c2ccccc2C1=O [Vitamin K1],Cholesterol-free media + simvastatin (0.04 μM),[1]; [19],1.062
same,Complete Media,[1]; [20],0.6359
same,Difference,[1]; [21],−0.43
same,Cholesterol-free,[2]; [17],0.9273
same,Complete,[2]; [18],1.412
same,Difference,[2]; [22],0.48
CN(C)CCC=C1c2ccccc2C=Cc2ccccc21 [Cyclobenzaprine (hydrochloride)],Cholesterol-free media + simvastatin (0.04 μM),[1]; [15],1.036
same,Complete Media,[1]; [14],1.3
same,Difference,[1]; [5],0.26
same,Cholesterol-free,[2]; [17],1.08
same,Complete,[2]; [18],1.26
same,Difference,[2]; [22],0.18
CN1CCc2c(c3ccccc3n2Cc2ccccc2)C1 [Mebhydrolin],Cholesterol-free media + simvastatin (0.04 μM),[1]; [15],0.7768
same,Complete Media,[1]; [14],0.6781
same,Difference,[1]; [21],−0.10
same,Difference,[2]; [23],−0.31
same,Cholesterol-free,[2]; [24],1.813
same,Complete,"[2]; NCI-H292 cells, complete media",1.508
O=c1n(CCCN2CCN(c3cccc(Cl)c3)CC2)nc2ccccn12 [Trazodone (hydrochloride)],Cholesterol-free media + simvastatin (0.04 μM),[1]; [15],0.8105
same,Complete Media,[1]; [14],1.053
same,Difference,[1]; [5],0.24
same,Cholesterol-free,[2]; [24],1.4
same,Complete,"[2]; NCI-H292 cells, complete media",1.032
same,Difference,[2]; [25],−0.37
C[C@@H]1C[C@H]2[C@@H]3CCC4=CC(=O)C=C[C@]4(C)[C@@]3(F)[C@@H](O)C[C@]2(C)[C@@]1(O)C(=O)CO [Dexamethasone],Cholesterol-free media + simvastatin (0.04 μM),[1]; [15],0.6107
same,Complete Media,[1]; [14],0.7971
same,Difference,[1]; [5],0.19
same,Difference,[2]; [23],0.07
same,Cholesterol-free,[2]; [17],0.7411
same,Complete,[2]; [18],0.8107
CC(C)Cc1ccc([C@H](C)C(=O)O)cc1 [(S)-(+)-Ibuprofen],Complete Media,[1]; [26],0.9605
same,Difference,[1]; [21],−0.26
same,Difference,[2]; [23],−0.01
same,Cholesterol-free,[2]; [17],1.011
same,Complete,[2]; [18],0.9982
COc1cccc2c1C(=O)c1c(O)c3c(c(O)c1C2=O)C[C@@](O)(C(=O)CO)C[C@@H]3O[C@H]1C[C@H](N)[C@@H](O)[C@H](C)O1 [Epirubicin (hydrochloride)],Cholesterol-free media + simvastatin (0.04 μM),[1]; [15],0.1295
same,Complete Media,[1]; [14],−0.004785
same,Difference,[1]; [21],−0.13
same,Difference,[2]; [23],−0.01
same,Cholesterol-free,[2]; [17],−0.006463
same,Complete,[2]; [18],−0.01887
CC1CS(=O)(=O)CCN1/N=C/c1ccc([N+](=O)[O-])o1 (stereo not drawn) [Nifurtimox],Cholesterol-free media + simvastatin (0.04 μM),"[1]; NCI-H292 cells, drug in cholesterol-free media with simvastatin 0.04 μM",1.357
same,Complete Media,[1]; [26],1.111
same,Difference,[1]; [21],−0.25
same,Cholesterol-free,[2]; [24],1.443
same,Complete,"[2]; NCI-H292 cells, complete media",1.102
same,Difference,[2]; [25],−0.34
